{
  "source": "ChEMBL document CHEMBL5532634",
  "about": "“Oxazolidinone: A promising scaffold for the development of antibacterial drugs” (Eur J Med Chem, 2023)",
  "test_system": "Mycobacterium tuberculosis",
  "assay": "Antimycobacterial activity against multi-drug resistant Mycobacterium tuberculosis assessed as reduction in bacterial growth",
  "type": "functional",
  "data": [
    {"compound": "CC(=O)NC[C@H]1CN(c2ccc(N3CCSCC3)c(F)c2)C(=O)O1", "note": "[SUTEZOLID]", "values": [
      {"measurement": "MIC", "result": 0.2, "unit": "µg/mL"}
    ]}
  ]
}
